Consider two compounds from PMC4595804, “A strategy to discover decoy chemokine ligands with an anti-inflammatory activity” (Scientific Reports, 2015).

Assay [1] concerns CCR4+ HUT78 cells. As to the kind of experiment: HUT78 chemotaxis: compounds alone or preincubated with the cells (antagonist protocol). Format: cell-based, human. Conditions: for chemotactic activity of the compound by itself: HUT78 cells, no chemokine; for inhibition of CCR4+ HUT78 T cell migration, compound preincubated with the cells: receptor antagonist protocol, 1 μM, 3 nM CCL17 or CCL22. The method, then:
Cell migration was carried out in RPMI1640-BSA (0.1%) using Transwell 96-well plates (Corning Costar, 5 μm pore size, polycarbonate membranes). […] Lower wells contained the same medium diluted with DMSO or chemokine (3 nM CCL17 or CCL22).
0.1% BSA using Transwell 96-well plates (Corning Costar, 5µm pore size, polycarbonate […]
the same medium diluted with DMSO or chemokine (3nM CCL17 or CCL22). In neutraligand inhibition studies, prior to their use, CCL17 (a) and CCL22 (b) were pre-incubated with […]
in the lower compartment. For characterization of the antagonist properties, the compounds were pre-incubated with the cells in the upper compartment. C-021 (1µM, stripped bars), the CCR4 receptor antagonist, was used as a control in both incubation protocols. Results are expressed as the percentage of cells that migrated to the lower chamber. Data represent the means±SD. Experiments were performed in triplicate.
(1 picture or pasted object on this page, not shown here)

For assay [2], the target named is T1, CCL5 (Homo sapiens, UniProt P13501).
T1 construct: (His)6; made in house; host or cells: E. coli BL21 (DE3)
In words: Selectivity, neutraligand protocol, EGFP-CCR5+ HEK cells. Format: cell-based. The note with it: 10 μM compound, 5 nM CCL5, EGFP-CCR5+ HEK cells. The method, then: (§1) Figure 6 (a) Selectivity of CCL17 and CCL22 neutraligands towards 10 chemokines according to the “neutraligand protocol”. […] Each column represents the mean (block) ± SD (bars) of n = 3 experiments performed in triplicate. *p < 0.05; **p < 0.01; ***p < 0.005 as compared to chemokine + DMSO. (b) Chemokine neutraligands inhibited CCR4 endocytosis induced by CCL22 or CCL17. EGFP-CCR4^+ HEK cells were incubated for 30 min with DMSO or chemokine (100 nM CCL22 or CCL17) in the presence or absence of test compounds. […] Cell surface EGFP-tagged CCR4 receptors were measured by EGFP antibody labeling and flow cytometry analysis. CCR4 internalization was expressed as a percentage of total receptor surface expression calculated using control cells incubated with DMSO (100%). Each column represents the mean (block) ± SD (bars) of n = 3 experiments performed in triplicate. *p < 0.05; **p < 0.01; ***p < 0.005 as compared to chemokine alone. (c,d) Inhibition of CCL17 and CCL22- induced CCR4^+HUT78 T cell chemotaxis by neutraligands. […] The number of migrating cells induced by a chemokine alone was set at 100% migration. The number of migrating cells in the presence of chemokine and compounds were expressed as the corresponding percentages. Results were analyzed by fitting the experimental curves (% of migrating cells vs log compound concentration) using the Kaleidagraph software program, and the corresponding IC50 values were calculated. Means and SD values of triplicates were plotted.
(§2) Human cDNAs encoding CCR4 and CXCR3 receptors were cloned in pIRES plasmid (Clontech) while cDNAs encoding CCR2, CCR5, CXCR2 and CXCR4 receptors were cloned in pCEP4 vector (Life technologies). The receptors are cloned in frame with a signal peptide fused to enhanced green fluorescent protein (EGFP) as described previously. All plasmid constructs were fully sequenced prior to transfections. Human Kidney Embryonic HEK-293 cells (ATCC) were maintained in Minimal Essential Medium (MEM, Invitrogen) supplemented with 10% FCS, penicillin (100 U/ml), streptomycin (100 μg/ml) and L-glutamine (2 mM) (Invitrogen) at 37 °C and 5% CO2. The cells were transfected with pIRES EGFP-CCR4 plasmid using calcium phosphate precipitation method. Stably EGFP-CCR4^+ HEK cells were selected for 5 weeks with geneticin (G-418, 600μg/ml), and resulting cell clones were checked by fluorescence microscopy and FACS analysis. HEK cells stably expressing human CXCR2, CXCR3, CXCR4, CCR5 and CCR2 were generated as described previously.
(§3) Dye loaded cells were placed in the FlexStation 3 (Molecular Devices). Calcium mobilization was measured at 401 and 475 nm emission fluorescence after excitation at 355 nm. For the primary screening, the ligands (50μl of chemokine mixed with DMSO or test compounds) were added to the cells at 40 s, followed by digitonin addition (50μl) at 100 s to the cells. Molecules were screened at a final concentration of 2μg/ml with 5 nM CCL17 or CCL22. […] Raw fluorescence data (at 401 and 475 nm) were exported and the ratio 401/475 was calculated. The calcium response values (height of peak response over baseline) were determined. Hits were selected by comparing the response amplitude at the time of the chemokine addition ± test compound. The Z’ factor[29] was calculated according to the following equation: Z’ = 1-(3SD+ + 3SD−)/|Ave+ − Ave−|, where SD+ and Ave+ are respectively the standard deviation and the mean value of the positive controls (chemokine + DMSO), while SD− and Ave− are respectively the standard deviation and the mean value of the negative controls (HEPES-BSA (0.1%) mixed with DMSO, or cells mixed with C-021). Hit molecules were confirmed by performing concentration-response curves and their half maximal inhibitory concentration (IC50) values were calculated using the Kaleidagraph software.

Assay [3] has as its target T2, CCL4 (Homo sapiens, UniProt P13236).
T2 construct: purchased R&D systems
Described as above. Format: cell-based. The note with it: 10 μM compound, 5 nM CCL4, EGFP-CCR5+ HEK cells. The method, then:
as §1, §2, §3

In assay [4] the target is T3, CCL3 (Homo sapiens, UniProt P10147).
T3 construct: purchased R&D systems
The description is as above. Format: cell-based. Conditions: 10 μM compound, 5 nM CCL3, EGFP-CCR5+ HEK cells. The method, then: as §1, §2, §3

T1 sequence (P13501 24-91): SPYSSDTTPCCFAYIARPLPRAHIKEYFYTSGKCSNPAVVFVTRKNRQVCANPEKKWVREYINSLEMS
T2 sequence (P13236 24-92): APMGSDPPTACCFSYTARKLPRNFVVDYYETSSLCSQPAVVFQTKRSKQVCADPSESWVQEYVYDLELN
T3 sequence (P10147 24-92): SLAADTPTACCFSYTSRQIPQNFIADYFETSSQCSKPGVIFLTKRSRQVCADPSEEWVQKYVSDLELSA

Regarding `O=C(OCC(O)CO)c1ccccc1O` (stereo not shown) [GPN136, 2,3-dihydroxypropyl 2-hydroxybenzoate], in assay [1], the “chemotactic activity of the compound by itself” value was “devoid of chemotactic activity” and the “inhibition of CCR4+ HUT78 T cell migration, compound preincubated with the cells” value is “no ability to inhibit”. Moreover, in assay [2], the “effect on calcium responses induced by CCL5” value is “no effect”. Besides, the “effect on calcium responses induced by CCL4” value in assay [3] is listed as “no effect”. Besides, the “effect on calcium responses induced by CCL3” value in assay [4] is “no effect”.

As for `CC(C)=CCn1cnc2c1c(=O)n(C)c(=O)n2C` [GPN279, 1,3-dimethyl-7-(3-methylbut-2-enyl)-1H-purine-2,6(3H, 7H)-dione], in assay [1], the “chemotactic activity of the compound by itself” value was “devoid of chemotactic activity” and the “inhibition of CCR4+ HUT78 T cell migration, compound preincubated with the cells” value is recorded as “no ability to inhibit”. In addition, the “effect on calcium responses induced by CCL5” value in assay [2] was “no effect”. For the same compound, in assay [3], the “effect on calcium responses induced by CCL4” value is given as “no effect”. Further, in assay [4], the “effect on calcium responses induced by CCL3” value is on record as “no effect”.
